Patent US12707888B2, “Asymmetric donor-acceptor molecular dyes” (THE UNIVERSITY OF NORTH CAROLINA AT CHARLOTTE, priority 2019, dated 2026)

Legend:
J774.A1 cells = test: Cell labeled spectral measurements; type: cell-based, Mouse
Description: FIG. 11C are normalized excitation/emission spectra of 1 μM Bu2N-TTz-Py in PBS buffer with 0.1% TritonX-100 before and after loading into ~0.5×10^5 J774.A1 cells. Excitation spectra (dashed line) were collected at 520 nm and emission spectra (solid line) were collected with 440 nm excitation.
Cell labeled spectral measurements. Excitation and emission spectra were collected by labeling the alveolar macrophage cell line J774.A1 (~0.5×10^5 cells) with 1 μM Bu2N-TTz-Py in phosphate buffered saline (PBS) buffer and 0.1% TritonX-100. Cells were incubated with dye for 10 min at RT, washed thrice with PBS, and dispersed in a cuvette for fluorescent spectral measurements (Fluoromax-4, Horiba Scientific, Edison, NJ, USA). Excitation spectra were collected at 520 nm emission. Emission spectra were collected by exciting at 440 nm. Electrophysiology. Whole cell voltage clamping measurements of 500 nM Bu2N-TTz-Py labeled HEK 293T cells were performed with Axopatch 200A amplifier (Molecular Devices), digitized using an NI-6251 DAQ (National Instruments), and controlled using WinWCP software (Strathclyde Electrophysiology Software). Patch pipettes were pulled using a Sutter P-97 Micropipette puller. Patch pipettes with resistances between 5-10 MOhm were used in voltage clamping experiments. The patch pipette was positioned using an MP325 motorized manipulator (Sutter). Metamorph premier Ver. 7.8.12.0 was linked to an NI-6501 DAQ to enable voltage triggered image acquisition. Extracellular solution composition was 145 mM NaCl, 20 mM glucose, 10 mM HEPES, pH 7.4, 3 mM KCl, 2 mM CaCl2), 1 mM MgCl2 (310 mOsm); and the intracellular solution composition was 115 mM potassium gluconate, 10 mM EGTA tetrapotassium salt, 10 mM HEPES, pH 7.2, 5 mM NaCl, 10 mM KCl, 2 mM ATP disodium salt (290 mOsm).

HEK 293T cells = test: Annexin V-Cy5 cytotoxicity; type: cell-based, Human; details: 500 nM dye for 15 min
Description: FIG. 12C provides Annexin V-Cy5 staining of HEK 293T cells incubated with DMSO (Veh.), VF2.1.Cl, and Bu2N-TTz-Py. Apoptosis for control (incubated cells 65° C., 10 min). Percentages of cytotoxicity were calculated as number of 100×Cy5 positive cells per number of nuclei stained. Error bars represent S.E.M. of three independent experiments, n=250 cells. Scale bars=10 μm.
Lastly, the cellular toxicities of Bu2N-TTz-Py and VF2.1.Cl were characterized using Annexin V-Cy5 staining of phosphatidylserine. HEK 293T cells were labelled with Bu2N-TTz-Py or VF2.1.Cl for 15 min, incubated with Annexin V-Cy5 for 20 min in the dark, washed, and fixed with 4% paraformaldehyde before imaging. As a positive control, apoptosis was induced via high-temperature incubation (65° C., 10 min).
Cellular localization: Time-lapse imaging was performed to probe the membrane localization of Bu2N-TTz-Py at longer time scale. […] Intensity values at plasma membrane (IPM) were calculated by drawing regions of interest (ROI) around the whole cell and subtracting intracellular intensity (IIM, ROI drawn within the cell) for Bu2N-TTz-Py and CellMask images, respectively. […] Cytotoxicity percentage is calculated as number of Annexin V-Cy5 positive cells to total number of nuclear stained cells. Number of cells quantification were performed using Analyze particle function of ImageJ program.

[1] = Lippert-Mataga analysis of excited state dipole moments; type: physicochemical; details: semi-empirically calculated using the Lippert-Mataga equation
Description: The calculated HOMOs/LUMOs indicate that the strong solvatofluorochromism arises from an ICT mechanism, whereby the ground state has significant electron localization on the donor side of the molecule whereas the electron density shifts to the acceptor moiety in the excited state. To more directly quantify the strong ICT character of the TTz dyes, the excited-state dipole moments were calculated using the Lippert-Mataga equation (Eq 1):
[formula] where va and vf are the wavenumbers of the absorption and emission peaks in cm^−1, respectively; μ* and μ are the excited state and ground state dipoles, respectively; ϵ0 is the vacuum permittivity, h is Planck's constant, c is the speed of light, a is the Onsager cavity radius, Δf is the orientation polarizability, ϵ is the relative permittivity, and η is the refractive index. The dipoles were calculated using Spartan 2016 software, and the Onsager cavity radii were calculated using Gaussian '09 software.
FIGS. 9A and 9B show the Stokes shift of Bu2N-TTz-Py and Ph2N-TTz-COOH versus Δf, respectively. From the slopes of the Lippert-Mataga plots, the change between the dipole moments of the ground and excited states can be determined. Even though the Lippert-Mataga equation assumes no specific solvent-solute interactions (e.g. hydrogen bonding) and ignores solute polarizability, high degrees of linearity are apparent; and therefore, the estimations of the excited state dipoles are regarded as reliable. […] Perhaps owing to the minimal solvent interactions and rapid vibrational relaxation, the estimated changes in dipole moments (Δμ) are remarkably large (Table IV). […] Therefore, it is expected that these asymmetric TTzs dyes would be well suited to give high sensitivity in sensing applications whereby small changes in the polarity of the environment can lead to large differences in the wavelengths of fluorescence.

## CCCCN(CCCC)c1ccc(-c2nc3sc(-c4ccncc4)nc3s2)cc1 [Bu2N-TTz-Py, 2-(N,N-dibutyl-4-aminophenyl)-5-(4-pyridyl) thiazolo[5,4-d]thiazole]
J774.A1 cells; localized to cell membranes, 440 nm excitation
  peak emission wavelength: 483 nm
J774.A1 cells; localized to cell membranes, collected at 520 nm emission
  peak excitation wavelength: 423 nm
J774.A1 cells; solution of PBS with 0.1% Triton-X100, before loading into cells
  wavelength of peak emission: 518 nm
HEK 293T cells
  cytotoxicity (Annexin V-Cy5 staining): insignificant cytotoxicity
[1]
  Change in Dipole Δμ: 15.9 D
  Excited State Dipole μ*: 24.3 D
